Test results published in ChEMBL document CHEMBL1201862, “PubChem BioAssay data set” (2004).
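Values below derive from 48-hour exposures of cells grown in 96-well plates, with endpoints linearly interpolated between the two concentrations bracketing the appropriate inhibition level. GI50 marks 50% less growth.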 Activity calls are given as the source filed them. Cut-off read from the data, not from the text of the source: active = GI50 up to about 1.1 µM and inactive = higher.

Tests used:
Assay in all cases: growth of human tumour cells (NCI), 48 h
RXF 393 = tested on: RXF 393
UACC-62 = tested on: UACC-62
SW-620 = tested on: SW-620
RPMI-8226 = tested on: RPMI-8226
HOP-92 = tested on: HOP-92
SN12C = tested on: SN12C
SF-539 = tested on: SF-539
NCI-H460 = tested on: NCI-H460
K562 = tested on: K562
SK-OV-3 = tested on: SK-OV-3
U-251 = tested on: U-251
OVCAR-4 = tested on: OVCAR-4
MCF7 = tested on: MCF7
OVCAR-3 = tested on: OVCAR-3
SK-MEL-5 = tested on: SK-MEL-5
HCT-116 = tested on: HCT-116
NCI-H23 = tested on: NCI-H23
CCRF-CEM = tested on: CCRF-CEM
SNB-19 = tested on: SNB-19
Malme-3M = tested on: Malme-3M

Row | Compound | GI50 (RXF 393) | GI50 (UACC-62) | GI50 (SW-620) | GI50 (RPMI-8226) | GI50 (HOP-92) | GI50 (SN12C) | GI50 (SF-539) | GI50 (NCI-H460) | GI50 (K562) | GI50 (SK-OV-3) | GI50 (U-251) | GI50 (OVCAR-4) | GI50 (MCF7) | GI50 (OVCAR-3) | GI50 (SK-MEL-5) | GI50 (HCT-116) | GI50 (NCI-H23) | GI50 (CCRF-CEM) | GI50 (SNB-19) | GI50 (Malme-3M)
1 | O=C(O)/C(Cc1ccnc2ccccc12)=N\O | > 100 µM (inactive) | > 100 µM (inactive) | > 100 µM (inactive) | > 100 µM (inactive) | > 100 µM (inactive) | > 100 µM (inactive) | > 100 µM (inactive) | > 100 µM (inactive) | > 100 µM (inactive) | > 100 µM (inactive) | > 100 µM (inactive) | > 100 µM (inactive) | > 100 µM (inactive) | > 100 µM (inactive) | > 100 µM (inactive) | > 100 µM (inactive) | > 100 µM (inactive) | > 100 µM (inactive) | > 100 µM (inactive) | > 100 µM (inactive)
2 | COc1cc(CCCOC2OC(COC3OCC(O)C(O)C3O)C(O)C(O)C2O)cc2cc(-c3ccc4c(c3)OCO4)oc12 (stereo unspecified) | > 94 µM (inactive) | > 175 µM (inactive) | > 175 µM (inactive) | > 175 µM (inactive) | > 175 µM (inactive) | 81.3 µM (inactive) | > 175 µM (inactive) | > 175 µM (inactive) | > 175 µM (inactive) | > 175 µM (inactive) | > 175 µM (inactive) | > 175 µM (inactive) | > 175 µM (inactive) | > 175 µM (inactive) | > 175 µM (inactive) | > 175 µM (inactive) | > 175 µM (inactive) | > 69.7 µM (inactive) | > 175 µM (inactive) | > 175 µM (inactive)
3 | Oc1c(CNCCCN2CCCC2)cc(Cl)c2cccnc12 | 11.5 µM (inactive) | 2.21 µM (inactive) | 4.01 µM (inactive) | 2.38 µM (inactive) | 7 µM (inactive) | 5.64 µM (inactive) | 2.87 µM (inactive) | 2.88 µM (inactive) | 2.37 µM (inactive) | 4.13 µM (inactive) | 4.09 µM (inactive) | 3.92 µM (inactive) | 4.56 µM (inactive) | 2.14 µM (inactive) | 1.36 µM (inactive) | 2.61 µM (inactive) | 11 µM (inactive) | 2.34 µM (inactive) | 6.46 µM (inactive) | 5.55 µM (inactive)
4 | CN1c2ccccc2C(=O)NC12CCN(CCCC(=O)c1ccc(F)cc1)CC2 | 62.8 µM (inactive) | > 100 µM (inactive) | 50.4 µM (inactive) | 33.1 µM (inactive) | 62.1 µM (inactive) | > 100 µM (inactive) | 50.6 µM (inactive) |  | 25.9 µM (inactive) | > 100 µM (inactive) | > 100 µM (inactive) | 87.3 µM (inactive) | 55 µM (inactive) | 48.9 µM (inactive) | 26.1 µM (inactive) | 44.7 µM (inactive) | > 100 µM (inactive) | 84.7 µM (inactive) |  | 27.7 µM (inactive)
5 | Cc1ccc2cc3cccc(C(=O)NCCN(C)C)c3nc2c1 | 1.01 µM (active) | 1.37 µM (inactive) | 0.514 µM (active) | 0.807 µM (active) | 0.376 µM (active) | 0.893 µM (active) | 1.38 µM (inactive) | 0.315 µM (active) | 0.69 µM (active) | 1.57 µM (inactive) | 1.66 µM (inactive) | 0.998 µM (active) | 0.681 µM (active) | 1.36 µM (inactive) | 1.32 µM (inactive) | 0.459 µM (active) | 1.25 µM (inactive) | 0.679 µM (active) | 0.925 µM (active) | 1.06 µM (active)
6 | OC1(c2ccccc2)CC2CCC(C1)N2CCc1ccccc1 (stereo unspecified) | > 100 µM (inactive) | 80.4 µM (inactive) | 48.9 µM (inactive) | 30.3 µM (inactive) | 43.8 µM (inactive) | > 100 µM (inactive) | 81.8 µM (inactive) | 58.9 µM (inactive) | 45.5 µM (inactive) | > 100 µM (inactive) | > 100 µM (inactive) | 72.8 µM (inactive) | 28.6 µM (inactive) | 85.5 µM (inactive) | 13.7 µM (inactive) | 40.3 µM (inactive) | 53.6 µM (inactive) | 34 µM (inactive) | 93.1 µM (inactive) | > 100 µM (inactive)
7 | COC(=O)[C@@H]1C=C[C@H](NC(C)=O)C1 | > 100 µM (inactive) | > 100 µM (inactive) | > 100 µM (inactive) | > 100 µM (inactive) | > 100 µM (inactive) | > 100 µM (inactive) |  | > 100 µM (inactive) | > 100 µM (inactive) | > 100 µM (inactive) | > 100 µM (inactive) | > 100 µM (inactive) | > 100 µM (inactive) | > 100 µM (inactive) | > 100 µM (inactive) | > 100 µM (inactive) | > 100 µM (inactive) | > 100 µM (inactive) | > 100 µM (inactive) | > 100 µM (inactive)
8 | COc1cc(/C=C2\N=C(c3ccccc3)N(c3ccc(C(=O)c4ccccc4)cc3N3C(=O)/C(=C/c4cc(OC)c(OC)c(OC)c4)N=C3c3ccccc3)C2=O)cc(OC)c1OC | 11.2 µM (inactive) | 9.48 µM (inactive) | 7.57 µM (inactive) | 9.73 µM (inactive) | 47.2 µM (inactive) | 23.1 µM (inactive) |  | 8.49 µM (inactive) | 4.86 µM (inactive) | 13.3 µM (inactive) | 18.7 µM (inactive) | 21.8 µM (inactive) | 12.6 µM (inactive) | 2.08 µM (inactive) | 9.33 µM (inactive) | 10.6 µM (inactive) | 17.1 µM (inactive) | 5.31 µM (inactive) | 25.6 µM (inactive) | 13.8 µM (inactive)
9 | COc1cccc2c1C(=O)c1c(O)c3c(c(O)c1C2=O)C[C@@](O)(C(=O)CO)C[C@@H]3OC1CC(N2CCOCC2)C(O)C(C)O1 (stereo partly specified) | 0.00396 µM (active) |  | 0.00791 µM (active) | 0.0025 µM (active) | 0.00975 µM (active) | 0.0156 µM (active) | 0.0025 µM (active) | 0.0025 µM (active) | 0.0025 µM (active) | 0.00292 µM (active) | 0.0025 µM (active) | 0.0201 µM (active) | 0.0025 µM (active) | 0.0025 µM (active) | 0.0025 µM (active) | 0.0025 µM (active) | 0.00567 µM (active) | 0.00323 µM (active) | 0.0025 µM (active) | 0.00259 µM (active)
10 | CC(=O)OC1CC2(O)C(CCC3(C)C(c4ccc(=O)oc4)CCC32O)C2(C)C1=CC(O)C1OC12 (stereo unspecified) | 0.0331 µM (active) | 0.0457 µM (active) | 0.0387 µM (active) | 0.0675 µM (active) | 0.0538 µM (active) | 0.0349 µM (active) | 0.0375 µM (active) | 0.0279 µM (active) | 0.0467 µM (active) | 0.0843 µM (active) | 0.0762 µM (active) | 0.0457 µM (active) | 0.0552 µM (active) | 0.0316 µM (active) | 0.025 µM (active) | 0.0296 µM (active) | 0.0275 µM (active) | 0.0267 µM (active) | 0.118 µM (active) | 0.0419 µM (active)
11 | CCOC(=O)Cn1c(=O)c2cc(C)cc3c(Cl)nc4c(OC)c(OC)cc1c4c32 | 51.1 µM (inactive) | > 100 µM (inactive) | > 100 µM (inactive) | 36.5 µM (inactive) | 41.5 µM (inactive) |  | > 100 µM (inactive) | > 100 µM (inactive) | > 100 µM (inactive) | > 100 µM (inactive) | > 100 µM (inactive) | > 100 µM (inactive) | 72.8 µM (inactive) | > 100 µM (inactive) | > 100 µM (inactive) | > 100 µM (inactive) | > 100 µM (inactive) | > 100 µM (inactive) | > 100 µM (inactive) | 44.2 µM (inactive)
12 | COc1nc2cccc(C(O)c3ccccc3)c2nc1-c1ccccc1 (stereo unspecified) | 3.64 µM (inactive) | 5.92 µM (inactive) | 3.82 µM (inactive) | 2.94 µM (inactive) | 6.92 µM (inactive) | 10.9 µM (inactive) | 2.88 µM (inactive) | 4.14 µM (inactive) | 3.81 µM (inactive) |  | 4.19 µM (inactive) | 10.1 µM (inactive) | 4.47 µM (inactive) | 3.91 µM (inactive) | 3.56 µM (inactive) | 3.97 µM (inactive) | 3.27 µM (inactive) | 3.02 µM (inactive) | 4.36 µM (inactive) | 17 µM (inactive)
13 | COC(=S)OC1CC(n2cnc3c(N)ncnc32)OC1CO[Si](C)(C)C(C)(C)C (stereo unspecified) | 12.1 µM (inactive) | 10.6 µM (inactive) | 28.6 µM (inactive) | 19 µM (inactive) | 31 µM (inactive) | 20.4 µM (inactive) |  | 20.3 µM (inactive) | 2.75 µM (inactive) | 24 µM (inactive) | 14.3 µM (inactive) | 16.6 µM (inactive) | 19.1 µM (inactive) | 15.3 µM (inactive) |  | 16 µM (inactive) | 14 µM (inactive) | 10.1 µM (inactive) | 33 µM (inactive) | 31.5 µM (inactive)
14 | O=P1(c2ccccc2)Nc2ccccc2SSc2ccccc2N1 | 19.4 µM (inactive) | 15.6 µM (inactive) | 16.7 µM (inactive) | 18.3 µM (inactive) | 15.4 µM (inactive) | 17.8 µM (inactive) | 19.9 µM (inactive) | 18.4 µM (inactive) | 18.2 µM (inactive) | 25.5 µM (inactive) | 16.7 µM (inactive) | 18.6 µM (inactive) | 16.7 µM (inactive) | 15.1 µM (inactive) | 16.9 µM (inactive) | 16.8 µM (inactive) | 16.6 µM (inactive) | 12.1 µM (inactive) | 16.3 µM (inactive) | 18.4 µM (inactive)
